# Results published in article PMC4445981, “The glutamate transport inhibitor DL-Threo-β-Benzyloxyaspartic acid (DL-TBOA) differentially affects SN38- and oxaliplatin-induced death of drug-resistant colorectal cancer cells” (BMC Cancer, 2015).
# Read-outs that look alike come from different tables or passages of the source.
# Legend:
# [1] = system: [3H]-D-Asp uptake (glutamate transporter activity) in HCT116-PAR cells; assay: [3H]-D-Asp uptake assay, HCT116-PAR; type: cell-based, human
# Method: (§1) We therefore next determined glutamate transporter activity (as uptake of the substrate [^3H]-D-Asp following a 6-min incubation in buffer supplemented with a tracer concentration of 100 nM [^3H]-D-Asp). […] To determine which transporter(s) was responsible for the [^3H]-D-Asp uptake, we assessed the effect of DL-TBOA, a nonselective inhibitor of EAATs, and UCPH-101, a specific SLC1A3 inhibitor [16, 28, 29]. […] Basal [^3H]-D-Asp uptake was decreased by about 60 % in SN38-resistant compared to parental HCT116 cells, whereas that in SN38-resistant LoVo cells was nearly tripled compared to parental LoVo cells.
# (§2) The [^3H]-D-Asp uptake assay was performed essentially as in [30]. Briefly, cells were split into poly-D-lysine-coated white 96-well plates (PerkinElmer). A similar number of cells were seeded for HCT116 parental, HCT116-SN38 and HCT116-Oxa cell lines (7 × 10^4 cells/well) and LoVo parental, Lovo-SN38 and Lovo-Oxa cell lines (6 × 10^4 cells/well). 16–24 h later, culture medium was aspirated, and cells were washed once with 100 μl assay buffer (Hank’s Buffered Saline Solution supplemented with 20 mM HEPES, 1 mM CaCl2 and 1 mM MgCl2, pH 7.4). 50 μl assay buffer supplemented with 100 nM [^3H]-D-Asp and test compounds as indicated was added, and the plate was incubated at 37 °C for 6 min. Non-specific [^3H]-D-Asp uptake was determined in wells with 3 mM L-glutamate. The assay mixture was quickly removed, and wells were washed with 2 × 100 μl ice-cold assay buffer, followed by 150 μl Microscint™20 scintillation fluid (PerkinElmer). The plate was shaken for 1 h and counted in a Wallac 1450 MicroBeta Trilux scintillation counter (GMI, Ramsey, MN).
# [2] = system: [3H]-D-Asp uptake (glutamate transporter activity) in HCT116-SN38 cells; assay: [3H]-D-Asp uptake assay, HCT116-SN38; type: cell-based, human
# Method: as §1, §2
# [3] = system: [3H]-D-Asp uptake (glutamate transporter activity) in HCT116-Oxa cells; assay: [3H]-D-Asp uptake assay, HCT116-Oxa; type: cell-based, human
# Method: as §1, §2
# [4] = system: [3H]-D-Asp uptake (glutamate transporter activity) in LoVo-PAR cells; assay: [3H]-D-Asp uptake assay, LoVo-PAR; type: cell-based, human
# Method: as §1, §2
# [5] = system: [3H]-D-Asp uptake (glutamate transporter activity) in LoVo-SN38 cells; assay: [3H]-D-Asp uptake assay, LoVo-SN38; type: cell-based, human
# Method: as §1, §2
# [6] = system: [3H]-D-Asp uptake (glutamate transporter activity) in LoVo-Oxa cells; assay: [3H]-D-Asp uptake assay, LoVo-Oxa; type: cell-based, human
# Method: as §1, §2
# [7] = system: [3H]-D-Asp uptake in HCT116 and LoVo cells (parental and resistant); assay: [3H]-D-Asp uptake assay, summary over cell lines; type: cell-based, human
# Method: as §1, §2
# SLC1A1 = settings: at concentration up to > 400 fold higher than SLC1A3 IC50; cited from earlier work
# SLC1A3 = settings: cited from earlier work
# [8] = Homo sapiens, read-out: IC50, [3H]-D-Asp uptake
# [9] = Homo sapiens, read-out: pIC50 ± S.E.M., [3H]-D-Asp uptake (converted)
smiles,measurement,setting,value
"N[C@@H](CCC(=O)O)C(=O)O [L-Glu, L-glutamate]",IC50,[1]; [8],21 µM
same,IC50,[1]; [9],21.4 µM
same,IC50,[2]; [8],21 µM
same,IC50,[2]; [9],21.4 µM
same,IC50,[3]; [8],21 µM
same,IC50,[3]; [9],21.4 µM
same,IC50,[4]; [8],26 µM
same,IC50,[4]; [9],25.7 µM
same,IC50,[5]; [8],28 µM
same,IC50,[5]; [9],28.8 µM
same,IC50,[6]; [8],23 µM
same,IC50,[6]; [9],22.9 µM
same,IC50,"[7]; Homo sapiens, read-out: IC50 values, competitive inhibition of [3H]-D-Asp uptake",20 to 30 µM
COc1ccc(C2C(C#N)=C(N)OC3=C2C(=O)CC(c2cccc4ccccc24)C3)cc1 (stereo not shown) [UCPH],"pIC50 ± S.E.M., [3H]-D-Asp uptake","[1]; HCT116-PAR, 100 nM [3H]-D-Asp, 6 min, 37 °C",< 4.0
same,IC50,"[1]; HCT116-PAR, 100 nM [3H]-D-Asp, 6 min, 37 °C, read-out: IC50, [3H]-D-Asp uptake",> 100 µM
same,"pIC50 ± S.E.M., [3H]-D-Asp uptake","[2]; HCT116-SN38, 100 nM [3H]-D-Asp, 6 min, 37 °C",< 4.0
same,IC50,"[2]; HCT116-SN38, 100 nM [3H]-D-Asp, 6 min, 37 °C, read-out: IC50, [3H]-D-Asp uptake",> 100 µM
same,"pIC50 ± S.E.M., [3H]-D-Asp uptake","[3]; HCT116-Oxa, 100 nM [3H]-D-Asp, 6 min, 37 °C",< 4.0
same,IC50,"[3]; HCT116-Oxa, 100 nM [3H]-D-Asp, 6 min, 37 °C, read-out: IC50, [3H]-D-Asp uptake",> 100 µM
same,"pIC50 ± S.E.M., [3H]-D-Asp uptake","[4]; LoVo-PAR, 100 nM [3H]-D-Asp, 6 min, 37 °C",< 4.0
same,IC50,"[4]; LoVo-PAR, 100 nM [3H]-D-Asp, 6 min, 37 °C, read-out: IC50, [3H]-D-Asp uptake",> 100 µM
same,"pIC50 ± S.E.M., [3H]-D-Asp uptake","[5]; LoVo-SN38, 100 nM [3H]-D-Asp, 6 min, 37 °C",< 4.0
same,IC50,"[5]; LoVo-SN38, 100 nM [3H]-D-Asp, 6 min, 37 °C, read-out: IC50, [3H]-D-Asp uptake",> 100 µM
same,"pIC50 ± S.E.M., [3H]-D-Asp uptake","[6]; LoVo-Oxa, 100 nM [3H]-D-Asp, 6 min, 37 °C",< 4.0
same,IC50,"[6]; LoVo-Oxa, 100 nM [3H]-D-Asp, 6 min, 37 °C, read-out: IC50, [3H]-D-Asp uptake",> 100 µM
same,effect on basal [3H]-D-Asp uptake,"[7]; all cell lines, concentrations up to 100 μM",essentially unaffected
same,activity at SLC1A1,SLC1A1,inactive
same,IC50 values for SLC1A3,SLC1A3,high-nanomolar
